Laboratory results from patent US5280015A, “2-substituted adenosines and 2-substituted adenosine 5'-carboxamides” (priority 1990, dated 1994).
“And” between values parts separate entries of the source, which are not always exact repeats. Equal entries are not always repeated. Structures can show the parent of a compound that is named as a salt. Where two headings read alike, the source gives them in different places.

How the values were obtained:
A1-adenosine receptors = target: T1, A1-adenosine receptors (Rattus norvegicus, UniProt P25099); experiment: Competitive binding assay at A1-adenosine receptors, rat cerebral cortex membranes ([3H]PIA or [3H]CHA)
T1 construct: rat cerebral cortex membranes; from tissue; host or cells: rat cerebral cortex membranes
T1 sequence (P25099 1-326): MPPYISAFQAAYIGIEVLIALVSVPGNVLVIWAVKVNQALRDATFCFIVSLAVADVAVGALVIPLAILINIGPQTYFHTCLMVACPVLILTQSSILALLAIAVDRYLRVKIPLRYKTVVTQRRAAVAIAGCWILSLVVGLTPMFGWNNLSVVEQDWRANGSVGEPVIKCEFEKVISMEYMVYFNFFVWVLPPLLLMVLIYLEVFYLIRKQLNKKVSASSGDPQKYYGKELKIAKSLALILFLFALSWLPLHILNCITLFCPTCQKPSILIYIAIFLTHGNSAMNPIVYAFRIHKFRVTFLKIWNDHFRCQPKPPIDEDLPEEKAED

A2-adenosine receptors [1] = target: T2, A2-adenosine receptors (Rattus norvegicus, UniProt P30543); experiment: Inhibition of binding of [3H]CGS21680 to A2-adenosine receptors in rat striatal membranes
T2 construct: rat striatal membranes; from tissue; host or cells: rat striatal membranes
T2 sequence (P30543 whole entry): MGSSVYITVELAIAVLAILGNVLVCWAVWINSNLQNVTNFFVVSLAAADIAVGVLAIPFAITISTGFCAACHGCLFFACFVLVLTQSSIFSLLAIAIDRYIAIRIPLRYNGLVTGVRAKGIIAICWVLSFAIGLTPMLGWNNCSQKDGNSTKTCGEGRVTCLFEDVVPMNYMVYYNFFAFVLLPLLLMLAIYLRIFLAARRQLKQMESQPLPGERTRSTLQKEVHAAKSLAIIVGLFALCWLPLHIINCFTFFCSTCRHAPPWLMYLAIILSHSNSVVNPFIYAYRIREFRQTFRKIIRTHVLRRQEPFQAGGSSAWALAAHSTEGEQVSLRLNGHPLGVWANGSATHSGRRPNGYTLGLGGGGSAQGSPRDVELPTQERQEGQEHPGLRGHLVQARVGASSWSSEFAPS
Protocol: (§1) Stock solutions of representative compounds of the present invention in the millimolar concentration range in dimethylsulfoxide were prepared for the binding assays. […] Protein was determined using the BCA (based on the complex with cuprous ions and bicinchoninic acid) protein assay reagents purchased from Pierce Chemical Co., Rockford, Ill.
The membrane suspension was then centrifuged at 37,000×g for 20 min at 4° C. The pellet was resuspended in buffer containing 2 IU/ml adenosine deaminase, Type VI from calf intestinal mucosa (Sigma, St. Louis, Mo.) to 20 mg/ml original tissue weight and incubated at 37° C. for 30 min. The membrane homogenate was recentrifuged as before, and the pellet was stored frozen at -70° C. until use.
For competitive binding assays using [^3 H]CGS21680, a volume of 1 ml was used in each 13×100 mm glass tube. […] The mixture was incubated with shaking for 90 min at 24° C. The samples were filtered on a Brandel Cell Harvester (Brandel, Gaithersburg, Md.) with Whatman GF/B filters, and washed rapidly twice with 5 ml of ice cold 50 mM Tris, pH 7.4. Each filter disc was added to 4 ml of scintillation fluid, vortexed, and counted after 6 hours.

A2 adenosine receptors = A2 adenosine receptors (Bos taurus, UniProt E1BKU0); experiment: Competitive binding assay in bovine brain using 125I-PAPA-APEC (striatal membranes); design: Bovine striatal membranes; from tissue; host or cells: bovine (calf) striatal membranes
Sequence of A2 adenosine receptors (E1BKU0 1-401): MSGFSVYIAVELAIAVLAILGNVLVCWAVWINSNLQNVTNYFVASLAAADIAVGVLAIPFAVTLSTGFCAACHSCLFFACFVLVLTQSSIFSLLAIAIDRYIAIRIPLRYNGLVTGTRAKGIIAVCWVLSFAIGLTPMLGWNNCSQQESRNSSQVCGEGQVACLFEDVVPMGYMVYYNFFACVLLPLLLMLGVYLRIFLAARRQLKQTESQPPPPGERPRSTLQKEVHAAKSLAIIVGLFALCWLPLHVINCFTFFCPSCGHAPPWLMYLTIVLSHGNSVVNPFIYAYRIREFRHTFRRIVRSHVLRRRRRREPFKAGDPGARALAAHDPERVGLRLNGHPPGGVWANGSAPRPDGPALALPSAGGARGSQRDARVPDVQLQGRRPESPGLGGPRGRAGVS
Protocol: (§2) The filters were washed with three×3 ml aliquots of pH 7.2 buffer containing 50 mM HEPES, 10 mM Mg^+2, and 0.05% CHAPS. The filters were placed in polypropylene tubes and counted in a Packard gamma counter.

A2-adenosine receptors [2] = experiment: as above; details: for Ki (A1)/K1 (A2): ratio of Ki at A1-receptors (rat) versus Ki in the 125I-PAPA-APEC assay (bovine)
Protocol: as §2

A2-adenosine receptors [3] = target: T2, A2-adenosine receptors; experiment: Inhibition of binding of [3H]NECA to A2-adenosine receptors in rat striatal membranes
Protocol: as §1
N^6 -Cyclopentyladenosine was present at 50 nM to inhibit binding of the ligand at A1 -adenosine receptors.

[4] = test system: locomotor activity in NIH mice; experiment: Locomotor depression by A2 adenosine agonists in mice (Digiscan activity monitor); type: in vivo, mouse; details: for locomotor depression (% decrease in horizontal activity from vehicle control) / ED50: ip; for ED50: Mus musculus, read-out: ED50, locomotor depression; for reversal of APEC locomotor depression by antagonist: antagonist injected before APEC, 8-cyclopentyltheophylline 10 mg/kg
human platelets = experiment: Increase in cyclic AMP in human platelets; type: cell-based; details: for activation at 1 µM: Platelet, read-out: increase in the level of cyclic AMP
[5] = Ki, inhibition of binding of 125I-PAPA-APEC at A2-receptors, bovine striatum; 11, 12 and 14: apparent Ki
[6] = rat, [3H]PIA, read-out: Ki, inhibition of binding of [3H]PIA at A1-receptors
[7] = rat striatum, 11, 12 and 14: apparent Ki, read-out: Ki, inhibition of binding of [3H]CGS21680 at A2-receptors
[8] = bovine brain A2; relative to compounds with Ki less than 10 nM
[9] = bovine striatum; 11, 12 and 14: apparent Ki; read-out: Ki, inhibition of binding of 125I-PAPA-APEC at A2-receptors
[10] = read-out: Ki, inhibition of binding of [3H]CGS21680 at A2-receptors
[11] = rat, [3H]N6-cyclohexyladenosine (footnote c), read-out: Ki, inhibition of binding at A1-receptors using [3H]N6-cyclohexyladenosine

Row | SMILES | Ki (A1)/K1 (A2) (A2-adenosine receptors [2]) | Ki (A1-adenosine receptors; [6]) | Ki (A2 adenosine receptors; [9]) | Ki (A2-adenosine receptors [1]; [10]) | other results
1 | CCNC(=O)[C@H]1O[C@@H](n2cnc3c(N)nc(NCCc4ccc(CCC(=O)NCCNC(=S)Nc5cccc(N=C=S)c5)cc4)nc32)[C@H](O)[C@@H]1O [Compound 11] | 11 | – | – | – | Ki (A1-adenosine receptors): 69.7 ± 7.9 nM; Ki (A2-adenosine receptors [1]): 22 ± 7 nM; Ki (A2 adenosine receptors; [5]): < 10 nM and 6.2 nM; Ki (A2-adenosine receptors [3]): 2.82 ± 0.38 nM
2 | CCNC(=O)[C@H]1O[C@@H](n2cnc3c(N)nc(NCCc4ccc(CCC(=O)NCCNC(=O)c5cccc(N)c5)cc4)nc32)[C@H](O)[C@@H]1O [Compound 8] | 31 | 1340 ± 28 nM | 43.6 ± 5.2 nM | – | Ki (A2-adenosine receptors [1]; [7]): 16.5 ± 2.8 nM; potency in displacing 125I-PAPA-APEC binding (A2 adenosine receptors; [8]): less potent
3 | CCNC(=O)[C@H]1O[C@@H](n2cnc3c(N)nc(NCCc4ccc(CCC(=O)NCCNC(=O)Cc5ccc(NC(=O)OCc6ccccc6)cc5)cc4)nc32)[C@H](O)[C@@H]1O [Compound 7] | 45 | 278 ± 18.7 nM | < 10 nM and 6.2 nM | 37 ± 5 nM | Ki (A2-adenosine receptors [3]): 5.59 ± 0.99 nM
4 | CCNC(=O)[C@H]1O[C@@H](n2cnc3c(N)nc(NCCc4ccc(CCC(=O)NCCNC(=O)Cc5cccs5)cc4)nc32)[C@H](O)[C@@H]1O [Compound 5] | 66 | – | 21.3 ± 7.9 nM | 15 ± 1 nM | locomotor depression (% decrease in horizontal activity from vehicle control) ([4]; mouse, in vivo): 49±9%; Ki (A1-adenosine receptors; [11]): 1400 ± 100 nM
5 | CCNC(=O)[C@H]1O[C@@H](n2cnc3c(N)nc(NCCc4ccc(CCC(=O)NCCNC(=S)Nc5ccc(N=C=S)cc5)cc4)nc32)[C@H](O)[C@@H]1O [Compound 12] | 39 | – | – | – | Ki (A1-adenosine receptors): 276 ± 75 nM; Ki (A2-adenosine receptors [1]): 35 ± 10 nM; Ki (A2 adenosine receptors; [5]): < 10 nM and 7.1 nM
6 | CCNC(=O)[C@H]1O[C@@H](n2cnc3c(N)nc(NCCc4ccc(CCC(=O)NCCN)cc4)nc32)[C@H](O)[C@@H]1O [Compound 3] | 16 | 235 ± 54 nM | < 10 nM and 6.1 nM | 12 ± 3 nM | ED50 [4]: 0.016 mg/kg; locomotor depression ([4]; mice, i.p., horizontal activity and total distance traveled): potent locomotor depressant in mice in a dose-dependent manner; Ki (A2-adenosine receptors [3]; read-out: Ki, inhibition of binding of [3H]NECA at A2-receptors, rat striatum, 11, 12 and 14: apparent Ki): 5.73 ± 0.52 nM
7 | Cn1c(=O)c2[nH]c(C3CCCC3)nc2n(C)c1=O [8-cyclopentyltheophylline] | – | – | – | – | reversal of APEC locomotor depression by antagonist ([4]; mice): not
8 | CCNC(=O)[C@H]1O[C@@H](n2cnc3c(N)nc(NCCc4ccc(CCC(=O)NCCNC(=O)c5cccc(NC(=O)OCc6ccccc6)c5)cc4)nc32)[C@H](O)[C@@H]1O [Compound 9] | 78 | – | < 10 nM and 8.7 nM | 12 ± 2 nM | Ki (A1-adenosine receptors; [11]): 680 ± 110 nM
9 | CCNC(=O)[C@H]1O[C@@H](n2cnc3c(N)nc(NCCc4ccc(CCC(=O)NCCCCNC(=O)c5ccc(CF)cc5)cc4)nc32)[C@H](O)[C@@H]1O [Compound 16] | 57 | 1450 ± 67 nM | 25.4 ± 7.6 nM | 18.9 ± 4.9 nM | locomotor depression (% decrease in horizontal activity from vehicle control) ([4]; […]): 50±4%; potency in displacing 125I-PAPA-APEC binding (A2 adenosine receptors; [8]): less potent
10 | CCNC(=O)[C@H]1O[C@@H](n2cnc3c(N)nc(NCCc4ccc(CCC(=O)NCCNC(=O)CCCC[C@@H]5SC[C@@H]6NC(=O)N[C@@H]65)cc4)nc32)[C@H](O)[C@@H]1O [Compound 10] | > 350 | – | 14.3 ± 3.3 nM | 55 ± 30 nM | Ki (A1-adenosine receptors; [11]): > 5000 nM
11 | CCNC(=O)[C@H]1O[C@@H](n2cnc3c(N)nc(NCCc4ccc(CCC(=O)OC)cc4)nc32)[C@H](O)[C@@H]1O [Compound 2] | 370 | – | < 10 nM and 6.1 nM | 5 ± 2 nM | Ki (A1-adenosine receptors; [11]): 2260 ± 440 nM; Ki (A2-adenosine receptors [3]): 17.5 ± 1.6 nM
12 | CCNC(=O)[C@H]1O[C@@H](n2cnc3c(N)nc(NCCc4ccc(CCC(=O)NCCNC(=S)Nc5ccc(S(=O)(=O)O)cc5)cc4)nc32)[C@H](O)[C@@H]1O [Compound 13, 2-[4-[2-[2-[4-(Sulfophenylthioureidyl)]-ethylaminocarbonyl]ethyl]phenyl]ethylamino]-5'-N-ethylcarboxamidoadenosine sodium salt] | 347 | 3780 ± 800 nM | 10.9 ± 2.3 nM | – | locomotor depression (% decrease in horizontal activity from vehicle control) ([4]; mouse, in vivo): 41±5%; Ki (A2-adenosine receptors [1]; [7]): 26 ± 10 nM; selectivity for A2 receptors (A2-adenosine receptors [2]; A2 versus A1): more than 200 fold
13 | NCCNC(=O)Cc1ccc(NC(=O)Cc2ccc(Nc3ncnc4c3ncn4[C@@H]3O[C@H](CO)[C@@H](O)[C@H]3O)cc2)cc1 [ADAC, reference compound] | – | – | – | – | Ki (A2-adenosine receptors [1]): 218 ± 28 nM; Ki (A2-adenosine receptors [3]): 210 nM
14 | CCNC(=O)[C@H]1O[C@@H](n2cnc3c(N)nc(NCCc4ccc(CCC(=O)NCCNC(=O)Cc5ccc(N)cc5)cc4)nc32)[C@H](O)[C@@H]1O [Compound 6] | 31 | 1340 nM | 43 ± 14 nM | 28 ± 7 nM | potency in displacing 125I-PAPA-APEC binding (A2 adenosine receptors; [8]): less potent; activation at 1 µM (human platelets; human platelets, 10^-6 M): 40%; increase in cyclic AMP (human platelets; human platelets, 1 nM to 10 μM): dose dependent increase in cyclic AMP
15 | Cn1c(=O)c2[nH]cnc2n(C)c1=O [theophylline] | – | – | – | – | total distance traveled restored, % of control ([4]; antagonist 10 mg/kg, at the ED50 dose of APEC, mice): 95±12 % of control; reversal of APEC locomotor depression by antagonist ([4]; mice): reversible by theophylline
16 | CCNC(=O)[C@H]1O[C@@H](n2cnc3c(N)nc(NCCc4ccc(CCC(=O)NCCNC(=O)CBr)cc4)nc32)[C@H](O)[C@@H]1O [Compound 14] | 125 | 1980 ± 102 nM | 15.8 ± 4.8 nM | 69.7 nM | –
17 | CCNC(=O)[C@H]1O[C@@H](n2cnc3c(N)nc(NCCc4ccc(CCC(=O)NCCNc5ccc([N+](=O)[O-])c6nonc56)cc4)nc32)[C@H](O)[C@@H]1O [Compound 17] | – | – | 31.6 ± 1.3 nM | – | affinity at A2-adenosine receptors (A2-adenosine receptors [2]; fluorescent probes, derivatives in general): high affinity
18 | CCCn1c(=O)c2[nH]c(C3CCCC3)nc2n(CCC)c1=S [8-cyclopentyl-1,3-dipropyl-2-thioxanthine] | – | – | – | – | reversal of APEC locomotor depression by antagonist ([4]; mice): not
19 | CCNC(=O)[C@H]1O[C@@H](n2cnc3c(N)ncnc32)[C@H](O)[C@@H]1O [NECA, 5'-N-ethylcarboxamidoadenosine, reference compound] | – | – | – | – | ED50 [4]: 0.002 mg/kg; activation at 1 µM (human platelets; Homo sapiens): 35%
20 | OC[C@H]1O[C@@H](n2cnc3c(NC4CCCCC4)ncnc32)[C@H](O)[C@@H]1O [CHA, N^6 -cyclohexyladenosine] | – | – | – | – | ED50 ([4]; mice, i.p., from dose response curves): 0.06 mg/kg; reversal of agonist-elicited locomotor depression by A1-selective antagonists ([4]; mice, agonist with A1-selective antagonists): reversed by A1 -selective antagonists
21 | CCNC(=O)[C@H]1O[C@@H](n2cnc3c(N)nc(NCCc4ccc(CCC(=O)NCCNC(=O)CCc5ccc(O)cc5)cc4)nc32)[C@H](O)[C@@H]1O [Compound 4] | 72 | – | 13.2 ± 1.5 nM | 13 ± 4 nM | locomotor depression (% decrease in horizontal activity from vehicle control) ([4]; mouse, in vivo): 44±7%; Ki (A1-adenosine receptors; [11]): 950 ± 100 nM
22 | CCNC(=O)[C@H]1O[C@@H](n2cnc3c(N)nc(NCCc4ccc(CCC(=O)NCCNC(=S)NC5CC(C)(C)N([O])C(C)(C)C5)cc4)nc32)[C@H](O)[C@@H]1O [Compound 15] | – | – | – | – | Ki (A1-adenosine receptors; read-out: Ki, inhibition of binding at A1-receptors using [3H]N6-cyclohexyladenosine, rat, [3H]N6-cyclohexyladenosine (footnote c)): 177 ± 38 nM; Ki (A2-adenosine receptors [1]; read-out: Ki, inhibition of binding of [3H]CGS21680 at A2-receptors, rat striatum, 11, 12 and 14: apparent Ki): 27 ± 3 nM; Ki (A2 adenosine receptors; read-out: Ki, inhibition of binding of 125I-PAPA-APEC at A2-receptors; bovine striatum; 11, 12 and 14: apparent Ki): 14.8 ± 3.6 nM
